# How the values were obtained:
# [1] = test system: cultured keratinocytes; details: Cryj1 100 ng/ml with glutathione 5 μg/ml
# Description: Culture keratinocytes (Distributor: Kurabo) were cultured in the EPILIFE-KG2 medium (Distributor: Kurabo) for two days in a humidified atmosphere at 37° C. For the confluent culture, the medium was replaced with EPILIFE-KG2+Ca1.8 mM (Distributor: Kurabo), and then after 28 to 48 hours of incubation, with EPILIFE-KG2 +Cal containing 5 μM of Fura2 AM (Distributor: life technology), following by one hour of culturing. Then, it was replaced with a buffer (pH 7.4) containing NaCl 150 mM, KCI 5 mM, CaCl2 1.8 mM, MgCl2 1.2 mM, HEPES 25 mM, and D-glucose 10 mM, and Cryj1 (Distributor: HAYASHIBARA) was added to the buffer at the concentration of 100 ng/ml alone, or with glutathione (Distributor: Nacalai Tesque, Inc.) (5 μg/ml). Fluorescence was measured with a fluorescence microscope to measure changes in the intracellular calcium concentration.
# The value of intracellular calcium concentration about 2 minutes after the addition of Cryj1 was calculated and quantified using the Aqua Cosmos software.
# [2] = biological target: thrombin (Homo sapiens, UniProt P00734); experiment: Measurement of thrombin activity (Rox prothrombin kit, chromogenic substrate, absorbance 405 nm); format: biochemical; details: glutathione 500 μg/ml to 2.5 mg/ml added to 40 ng/ml prothrombin; thrombin activator and substrate added; absorbance 405 nm every 40 seconds; FIG. 1
# Description: A Rox prothrombin kit (Distributor: Rossix) was used for the measurement of thrombin activity. After glutathione (Distributor: Nacalai Tesque, Inc.) was added to a 40 ng/ml solution of prothrombin (Distributor: Invitrogen) at a concentration of 500 μg/ml to 2.5 mg/ml, the thrombin activator and thrombin substrate included in the kit were added and thrombin activity was measured.
# [3] = test system: epidermal permeation barrier; details: previous study, Non-patent Document 2, Patent Document 1; cited from earlier work
Compound,calcium imaging over time (excitation of fluorescence) ([1]; FIG. 2),intracellular calcium concentration about 2 minutes after the addition of Cryj1 ([1]; FIG. 3),thrombin activity (substrate decomposition rate) [2],delay in thrombin-mediated recovery of the epidermal permeation barrier induced by Cryj1 [3]
"N[C@@H](CCC(=O)N[C@@H](CS)C(=O)NCC(=O)O)C(=O)O [Glutathione, glutathione]",suppresses the excitation,significantly suppresses the calcium response elicited by Cryj1,inhibit thrombin activity in a dose-dependent manner,–
NC[C@H]1CC[C@H](C(=O)O)CC1 [tranexamic acid],–,–,–,blocks the delay in thrombin-mediated recovery of the epidermal permeation barrier
